Series [1] deals with MCF7 human breast cancer cells. The series is described as follows: Fluorescent labeled Na+/Ca2+ probe technique, influx and death of cancer cells. The series is classed as cell-based. An excerpt:
Fluorescent labeled ion probe technique was used in study of the influx of Na^+ and Ca^2+ from the extracellular fluid into intracellular fluid of cancer cells.

For series [2] the following is noted: for toxicity of high concentration solutions injected intramuscularly: paralysis of legs, cardiovascular and pulmonary failure, death. On the procedure:
First, potential roles of Na^+, K^+, Ca^2+ and Mg^2+ in treatment of tumor and cancer were tested. In vivo experiments in BALB/c mice were performed. High concentration solutions of Na^+, K^+, Ca^2+ and Mg^2+ were injected intramuscularly. […] Experiments were focused on high concentrations of Na^+ and Ca^2+ solutions.
At the beginning, in vivo toxicity of high concentrations of Na^+, Ca^2+, K^+, and Mg^2+ in BALB/c mice was examined.
BALB/c mice were housed and inbreeded in the contracted university animal facilities that was in accordance with the NIH regulation. Body weight of the BALB/c mice at the experiment was 30±g. The toxicity test was performed using intramuscular injection with 0.2ml of 35% NaCl, 35% CaCl2, 34% KCl or 35% MgCl2 in a mouse, respectively.
In total, 20 BALB/c mice (10 males and 10 females) were randomly divided into 5 groups, with 4 mice in each group.

The subject of series [3] is 18 types of human cancer cell lines. The series is described as follows: Ex vivo killing test in tissue culture (Trypan blue exclusion or flow cytometry). In kind it is cell-based. On the procedure: Tumor cells were cultured in DMEM or RPMI1640 medium supplemented with 10% fetal bovine serum (FCS). The medium in the control group was free of the “medicinal ion bomb” solution. […] Mortality of cancer cells was evaluated by Trypan blue exclusion test or flow cytometry.
The role of the “medicinal ion bomb” in killing cancer cells was tested in tissue culture. Cancer cells were seeded in Petri dish using DMEM or RPMI1640 medium supplemented with 10% FCS. Each type of cancer cell line was prepared at 2×10^6 cells/ml in a 5ml plastic tube. […] Three to five minutes later, 0.5% Trypan Blue was added and mixed with the cell suspension for 2 minutes. The number of dead cancer cells was counted under an inverted microscope. Selected samples of treated cancer cell suspension for flow cytometer were prepared in phosphate-buffered saline (PBS) and mortality of cells was assayed using flow cytometer (Beckman Coulter Inc., CA).
(In general: Flow cytometry measures light scatter and fluorescence of single cells or particles in a stream.)

For series [4], the system named is MCA207 mouse sarcoma, MC38 mouse colorectal cancer and B16F1 mouse melanoma. The conditions noted are these: for occurrence of tumor necrosis: high concentrations, evaluated 24, 48 and 72 hours after treatment; for average necrosis of all treated tumors: 48 hours.
From the text: Three animal tumor models of MCA207 mouse sarcoma, MC38 mouse colorectal cancer and B16F1 mouse melanoma were established in C57BL6 mice. The treatment of intratumoral injection started when tumors reached 8mm×8mm in size.
Thirty-six C57BL6 tumor mice were randomly divided into three groups according to tumor types (12 animals in each group). Then, animals in each group were further divided into 4 subgroups (3 tumor mice in each subgroup). Tumor animals in subgroup-1, as the control, were treated by intratumoral injection with 0.1ml of normal saline. Tumor animals in subgroup-2 were treated by intratumoral injection with 0.1ml of various concentrations of sodium chloride solution.
Twenty-four, 48 and 72 hours after treatment, experimental results were evaluated by measuring the dimension of necrotic area of the treated tumors using a ruler.
Series [5] deals with tumors. The series is described as follows: Earlier intratumoral injection of arsenic. The series is classed as in vivo, mice. An excerpt: An occasional opportunity sparked this invention. […] One day, the inventor went shopping in a Chinese supermarket and bought a dozen salted duck eggs. On the way back home, […] wondered why these salted duck eggs could be preserved at room temperature for years without rotting. The answer is that proteins and yolks in salted duck eggs are coagulated or clotted by high concentration of salt (sodium chloride), in particular by high concentration of sodium ions. The inventor linked this phenomenon to cell biology, cell physiology, membrane potential, ion science and cancer treatment, and presumed that high concentrations of sodium chloride might coagulate or clot proteins in cancer cells like what occurs in salted duck eggs.

For series [6], the system named is multiple glomus tumors. The note with it: 23.4% solution; 4 sessions of intralumenal injection in 6 months; one patient; cited from earlier work.
The test system of series [7] is liver tumor. The conditions noted are these: 36.5% hypertonic saline; cited from earlier work.
Setting [8] is: 0.2ml of 35% NaCl, 35% CaCl2, 34% KCl or 35% MgCl2, mouse 30 g.

The values that follow come from patent US9962403B2, “Formulation drug of sodium ion and calcium ion for treating cancer, tumor and nonmalignancy” (priority 2011, dated 2018).

Read-outs that look alike come from different tables or passages of the source.

For `[Ca+2].[Cl-].[Cl-]` [calcium chloride solution, calcium chloride], the “effect of Ca2+ solutions on cancer cells” value in series [1] (250 mM, 1.0 M, 1.5 M, 2.0 M and 3.0 M, Ca2+ probe fluorescence microscopy) was “immediate sickness or death of cancer cells”. Moreover, the “outcome of animals after intramuscular injection” value (shortened to “outcome of animals”) in series [2] (0.2ml of 17.5% CaCl2) is on record as “survived the experiment”; in series [2] (setting [8]) it was “died in 3 hours after treatment”. Also, the “effect of tissue culture medium containing 250 mM of Ca2+” value in series [3] was “induced sickness, apoptosis and death”. In series [4] (Ca2+ alone or in combination, intratumoral injection, room temperature), the “maximal effective treatment concentration” value stood at 6.0 M. Further, in series [4] (high concentration of calcium chloride solution), the “local toxicity at the injection site” value is listed as “toxic that causes unhealed wound at the injection site”. Also, the “occurrence of tumor necrosis” value in series [4] is “necrosis occurred in all tumors”. Moreover, the “necrosis of treated tumors” value in series [4] (single intratumoral injection 0.1 ml of 250 mM, 1.0 M, 1.5 M, 2.0 M and 3.0 M, 48 hours posttreatment) is reported as “coagulating necrosis of all treated tumors”.
For `[AsH3]` [arsenic], the treatment outcome in series [5] is “did not work well”.
As to `[Cl-].[Cl-].[Mg+2]` [MgCl2], the “outcome of animals” value in series [2] (mouse, in vivo) was “not well absorbed”. In addition, in series [2], the “toxicity of high concentration solutions injected intramuscularly” value was “toxic”.
With `[Cl-].[K+]` [KCl], the “outcome of animals” value in series [2] (setting [8]) is reported as “died from cardiopulmonary failure 3 hours after treatment”. In addition, the “toxicity of high concentration solutions injected intramuscularly” value in series [2] is “toxic”.
Consider `[Cl-].[Na+]` [sodium chloride solution, sodium chloride], for which the treatment outcome in series [6] was “did not result in successful treatment”; in series [7], “none of the tumors were successfully treated”. Moreover, the “time to kill MCF7 cells” value in series [1] (5.0479 M of Na+ solution alone) amounted to 20 ± 4 s. For the same compound, in series [2] (setting [8]), the “outcome of animals” value is reported as “survived the experiment”. In addition, the “average necrosis of all treated tumors” value in series [4] (3.0 M solution) is 30%±10; in series [4] (single intratumoral injection 0.1 mL of 5.0479 M solution), 90%± 5; in series [4] (single intratumoral injection 0.1 mL of 5.0479 M solution, listed as Na^+ solution) it was 90%±5. In series [4] (Na+ alone or in combination, intratumoral injection, room temperature, listed as Na^+ solution), the “minimal effective treatment concentration” value is given as 2.0 M. Also, in series [4], the “occurrence of tumor necrosis” value is given as “necrosis occurred in all tumors”.
